US12590106B2, “Spiromacrocyclic orexin 2 receptor agonists” (H. Lundbeck A/S, priority 2023, dated 2026)

Experiments:
human Ox2R = target: T1, human Ox2R (Homo sapiens, UniProt O43614); experiment: Measurement of OX2R agonist activity (cell-based calcium release assay); conditions: hOx2R-CHO Flp-In cells, n≥2 tests; for EC50: intracellular calcium, read-out: EC50; for Emax: normalized to assay buffer (0%) and 10 μM Danavorexton (100%), read-out: Emax (%)
T1 construct: The gene encoding hOx2R was subcloned into the expression plasmid pcDNA5/FRT/TO; expressed in transfected cells; host or cells: CHO Flp-In cells (pcDNA5/FRT/TO with pOG44 Flp recombinase vector, hygromycin B selection)
T1 sequence (O43614 1-444): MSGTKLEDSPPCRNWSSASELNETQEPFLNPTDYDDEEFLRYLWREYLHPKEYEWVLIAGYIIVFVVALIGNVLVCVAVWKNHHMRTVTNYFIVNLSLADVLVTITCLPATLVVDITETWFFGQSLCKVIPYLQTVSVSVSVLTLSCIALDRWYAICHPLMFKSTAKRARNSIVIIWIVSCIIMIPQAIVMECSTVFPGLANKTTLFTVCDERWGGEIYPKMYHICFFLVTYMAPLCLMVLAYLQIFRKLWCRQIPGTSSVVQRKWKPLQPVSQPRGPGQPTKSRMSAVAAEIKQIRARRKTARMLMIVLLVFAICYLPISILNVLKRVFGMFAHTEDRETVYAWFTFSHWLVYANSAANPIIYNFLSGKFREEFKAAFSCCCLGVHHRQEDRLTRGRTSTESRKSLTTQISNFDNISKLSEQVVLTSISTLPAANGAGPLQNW
Summary of the method: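 CHO Flp-In cells stably expressing human Ox2R, dye-loaded 1 h at 37 °C in HBSS/20 mM HEPES pH 7.4 with 2.5 mM probenecid and 10 mM CaCl2, then stimulated with compound.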

P-gp (MDR1) = target: T2, P-gp (MDR1) (Homo sapiens, UniProt P08183); experiment: MDR1-MDCKII assay (bidirectional transport); assay type: in vitro ADME; conditions: MDCK-MDR1, pH 7.4, test compound 0.5 μM, MDR1-MDCKII monolayer; for efflux ratio at 0.5 μM: read-out: ER (efflux ratio); for Papp A→B at 0.5 μM: apical to basolateral
T2 construct: host or cells: MDCKII (canine kidney) cells transfected with human MDR1
T2 sequence (P08183 whole entry): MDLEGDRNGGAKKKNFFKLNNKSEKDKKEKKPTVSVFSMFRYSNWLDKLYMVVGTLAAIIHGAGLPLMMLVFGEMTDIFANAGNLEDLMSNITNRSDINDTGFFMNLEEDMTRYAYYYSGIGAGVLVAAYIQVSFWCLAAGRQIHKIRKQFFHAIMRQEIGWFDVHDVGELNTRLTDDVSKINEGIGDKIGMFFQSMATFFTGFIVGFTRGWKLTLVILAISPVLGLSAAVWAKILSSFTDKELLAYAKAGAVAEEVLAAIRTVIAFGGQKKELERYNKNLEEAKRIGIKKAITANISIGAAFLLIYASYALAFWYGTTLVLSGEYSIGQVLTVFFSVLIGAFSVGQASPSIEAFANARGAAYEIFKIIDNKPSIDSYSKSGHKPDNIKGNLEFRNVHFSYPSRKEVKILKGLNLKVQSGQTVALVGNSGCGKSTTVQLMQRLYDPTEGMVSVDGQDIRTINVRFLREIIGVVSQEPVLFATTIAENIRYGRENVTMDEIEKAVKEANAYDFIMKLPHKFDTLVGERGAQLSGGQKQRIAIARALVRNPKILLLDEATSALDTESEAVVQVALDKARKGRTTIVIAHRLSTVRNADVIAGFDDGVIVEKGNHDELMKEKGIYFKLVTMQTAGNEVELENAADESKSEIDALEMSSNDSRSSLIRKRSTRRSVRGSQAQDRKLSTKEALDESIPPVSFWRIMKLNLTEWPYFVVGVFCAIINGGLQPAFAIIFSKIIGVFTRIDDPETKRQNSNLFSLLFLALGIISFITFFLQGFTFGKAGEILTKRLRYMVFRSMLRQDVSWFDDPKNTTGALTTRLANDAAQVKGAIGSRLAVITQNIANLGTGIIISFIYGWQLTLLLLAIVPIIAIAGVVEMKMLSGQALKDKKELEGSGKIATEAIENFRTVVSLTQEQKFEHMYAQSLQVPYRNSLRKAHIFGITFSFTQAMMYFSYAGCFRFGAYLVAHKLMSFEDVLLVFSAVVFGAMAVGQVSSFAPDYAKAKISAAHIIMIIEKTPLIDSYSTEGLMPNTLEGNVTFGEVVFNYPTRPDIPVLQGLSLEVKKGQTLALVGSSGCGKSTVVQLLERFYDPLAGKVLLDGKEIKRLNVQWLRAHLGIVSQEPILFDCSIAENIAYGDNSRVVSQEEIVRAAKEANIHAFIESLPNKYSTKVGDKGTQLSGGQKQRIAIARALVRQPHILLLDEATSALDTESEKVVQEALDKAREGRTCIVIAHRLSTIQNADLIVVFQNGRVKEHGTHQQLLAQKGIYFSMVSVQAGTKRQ
Procedure: Bidirectional transport in MDCKII cells transfected with human MDR1 were assessed according to previously published methodology (Langthaler, K. et al. (2024). Fluids Barriers CNS, 21 (11): 1-15). In brief, cells obtained from the Netherlands Cancer Institute were maintained at 37° C. in α-MEM containing 10% FBS, 100 μg/mL penicillin-G, 100 μg/mL streptomycin, 1% non-essential amino acid under culture conditions of 5% CO2 and 95% relative humidity. Transport of test compound (0.5 μM, 0.4% DMSO final concentrations) across the cell monolayer was determined in triplicate on a single test occasion along with controls for low and high permeability (fenoterol and metoprolol, 2 μM) and P-gp efflux (digoxin, 10 μM). Each compound was loaded onto either the apical side (75 μL) or basolateral side (275 μL) with transport buffer (1% BSA in HBSS with 10 mM HEPES (pH 7.4)) on the opposing side of the cells (e.g. 50 μL or 250 μL on the apical or basolateral side). A sample (25 μL) from the donor compartment was taken 30 s after test compound is loaded onto the plate, resulting in a final incubation volume of 50 μL and 250 μL on apical and basolateral sides respectively. At the end of the incubation period, samples (75 μL) were taken from both sides. The donor samples (25 μL) were firstly diluted with transport buffer (50 μL) and then all samples were quenched in acetonitrile (125 μL) containing internal analytical standards. After centrifugation (20 min, 3220 g, 4° C.) the supernatants were analysed by LC-MS/MS. The apparent permeability coefficient (Papp) and efflux ratio (ER) were calculated using the equations below; where dCr/dt is the compound concentration in the receiver chamber as a function of time (μM/s); Vr is the solution volume in the receiver chamber; A is the surface area of the cell monolayer; C0 is the initial concentration in the donor compartment; and Papp A-B and Papp B-A refer to the apparent permeabilities in the respective directions. Compound permeability is classified as low, moderate, or high according to Papp value binning classifications: <1, 1 to 6 or >6×10^−6 cm/s, respectively. The ER is employed to classify compounds as unlikely, possible, or likely P-gp substrates when ER was: <1.5, 1.5 to <2 or >2, respectively.

EC50 (human Ox2R) [nM]	Emax (human Ox2R) [%]	efflux ratio at 0.5 μM (P-gp (MDR1))	Papp A→B at 0.5 μM (P-gp (MDR1)) [×10⁻⁶ cm/s]	SMILES
0.037	100	1.8	10.2	CS(=O)(=O)NC1CC[C@@]2(CO[C@H]3CC[C@H](CC3)c3cccc(F)c3OCc3coc2n3)C1 (stereo partly drawn) [Example 100, N-[(1R,1′S,14S,17R)-6-fluorospiro[8,12,16-trioxa-22-azatetracyclo[15.2.2.110,13.02,7]docosa-2,4,6,10,13(22)-pentaene-14,3′-cyclopentane]-1′-yl]methanesulfonamide]
0.08	100	1.6	9.52	O=S(=O)(N[C@H]1CC[C@@]2(Cc3cc(c(F)cc3F)-c3cccc(F)c3OCc3coc2n3)C1)C1CC1 [Example 104, N-[(1′S,14R)-6,17,19-trifluorospiro[8,12-dioxa-21-azatetracyclo[14.3.1.110,13.02,7]henicosa-1(19),2,4,6,10,13(21),16(20),17-octaene-14,3′-cyclopentane]-1′-yl]cyclopropanesulfonamide]
0.054	95	1.3	6.47	O=S(=O)(CF)N[C@H]1CC[C@@]2(Cc3ccc(F)c(c3)-c3cccc(F)c3OCc3coc2n3)C1 [Example 113, N-[(1′S,14R)-6,19-difluorospiro[8,12-dioxa-21-azatetracyclo[14.3.1.110,13.02,7]henicosa-1(20),2,4,6,10,13(21),16,18-octaene-14,3′-cyclopentane]-1′-yl]-1-fluoro-methanesulfonamide]
0.068	98	1.5	3.87	O=S(=O)(N[C@H]1CC[C@@]2(Cc3ccc(F)c(c3)-c3cccc(F)c3OCc3coc2n3)C1)C1(F)CC1 [Example 116, N-[(1′S,14R)-6,19-difluorospiro[8,12-dioxa-21-azatetracyclo[14.3.1.110,13.02,7]henicosa-1(20),2,4,6,10,13(21),16,18-octaene-14,3′-cyclopentane]-1′-yl]-1-fluoro-cyclopropanesulfonamide]
0.048	100	1.9	9.31	CS(=O)(=O)N[C@@H]1C[C@]2(Cc3ccc(F)c(c3)-c3cccc(F)c3OCc3coc2n3)[C@H]2C[C@@H]12 [Example 117, N-[(1′R,2′R,5′S,14R)-6,19-difluorospiro[8,12-dioxa-21-azatetracyclo[14.3.1.110,13.02,7]henicosa-1(20),2,4,6,10,13(21),16,18-octaene-14,4′-bicyclo[3.1.0]hexane]-2′-yl]methanesulfonamide]

Continued, molecule first:

SMILES	EC50 (human Ox2R) [nM]	Emax (human Ox2R) [%]	efflux ratio at 0.5 μM (P-gp (MDR1))	Papp A→B at 0.5 μM (P-gp (MDR1)) [×10⁻⁶ cm/s]
CS(=O)(=O)N[C@H]1CC[C@@]2(Cc3ccc(F)c(c3)-c3cccc(F)c3OCc3coc2n3)C1 [Example 8, N-[(1′S,14R)-6,19-difluorospiro[8,12-dioxa-21-azatetracyclo[14.3.1.110,13.02,7]henicosa-1(19),2,4,6,10,13(21),16(20),17-octaene-14,3′-cyclopentane]-1′-yl]methanesulfonamide]	0.064	99	1.3	11.5
CS(=O)(=O)N[C@H]1CC[C@@]2(Cc3ccc(Cl)c(c3)-c3cccc(F)c3OCc3coc2n3)C1 [Example 16, N-[(1′S,14R)-19-chloro-6-fluoro-spiro[8,12-dioxa-21-azatetracyclo[14.3.1.110,13.02,7]henicosa-1(19),2,4,6,10,13(21),16(20),17-octaene-14,3′-cyclopentane]-1′-yl]methanesulfonamide]	0.051	99	1	9.31
CCS(=O)(=O)N[C@H]1CC[C@@]2(Cc3ccc(F)c(c3)-c3cccc(F)c3OCc3coc2n3)C1 [Example 21, N-[(1′S,14R)-6,19-difluorospiro[8,12-dioxa-21-azatetracyclo[14.3.1.110,13.02,7]henicosa-1(19),2,4,6,10,13(21),16(20),17-octaene-14,3′-cyclopentane]-1′-yl]ethanesulfonamide]	0.083	100	1.4	9.89
Cc1oc2nc1COc1c(F)cccc1-c1cc(ccc1F)C[C@@]21CC[C@H](NS(C)(=O)=O)C1 [Example 25, N-[(1′S,14R)-6,19-difluoro-11-methyl-spiro[8,12-dioxa-21-azatetracyclo[14.3.1.110,13.02,7]henicosa-1(19),2,4,6,10,13(21),16(20),17-octaene-14,3′-cyclopentane]-1′-yl]methanesulfonamide]	0.066	97	2	8.2
CS(=O)(=O)N[C@H]1CC[C@@]2(Cc3cc(c(F)cc3F)-c3cc(F)cc(F)c3OCc3coc2n3)C1 [Example 30, N-[(1′S,14R)-4,6,17,19-tetrafluorospiro[8,12-dioxa-21-azatetracyclo[14.3.1.110,13.02,7]henicosa-1(19),2,4,6,10,13(21),16(20),17-octaene-14,3′-cyclopentane]-1′-yl]methanesulfonamide]	0.077	97	1.8	9.04
CS(=O)(=O)N[C@H]1CC[C@@]2(Cc3cc(c(F)cc3F)-c3cccc(F)c3OCc3csc2n3)C1 [Example 36, N-[(1′S,14R)-6,17,19-trifluorospiro[8-oxa-12-thia-21-azatetracyclo[14.3.1.110,13.02,7]henicosa-1(19),2,4,6,10,13(21),16(20),17-octaene-14,3′-cyclopentane]-1′-yl]methanesulfonamide]	0.058	100	1.1	8.23
CS(=O)(=O)N[C@H]1CC[C@@]2(Cc3cc(c(F)cc3F)-c3cccc(F)c3OCc3coc2n3)C1 [Example 39, N-[(1′S,14R)-6,17,19-trifluorospiro[8,12-dioxa-21-azatetracyclo[14.3.1.110,13.02,7]henicosa-1(19),2,4,6,10,13(21),16(20),17-octaene-14,3′-cyclopentane]-1′-yl]methanesulfonamide]	0.035	97	1.1	10.2
CS(=O)(=O)N[C@H]1CC[C@@]2(CO[C@H]3CC[C@H](CC3)c3cccc(n3)OCc3coc2n3)C1 [Example 42, N-[(1s,1′S,13S,16s)-spiro[7,11,15-trioxa-21,22-diazatetracyclo[14.2.2.12,6.19,12]docosa-2,4,6(22),9,12(21)-pentaene-13,3′-cyclopentane]-1′-yl]methanesulfonamide]	0.062	98	1	13
